Broadly, the Ki is the dissociation constant of the complex between target and ligand, obtained from inhibition or displacement. The term IC50 denotes the concentration needed to halve the response being measured.

Where two headings read alike, the source gives them in different places.

One series deals with 5-HT2C (Homo sapiens (Human), UniProt P28335). Nature of the series: 5-HT2C [125I]DOI binding. The following applies: Table 3a; read-out: 5-HT2C [125I]DOI Ki ± SEM.
The next series concerns the target human D2R (Homo sapiens (Human), UniProt P14416). As to the kind of experiment: Radioligand competition binding, [3H]N-methylspiperone, HEK293 membranes expressing human D2R. Particulars: read-out: D2R Ki ± SEM. As for the experimental part: (§1) Binding at dopamine D2-like receptors was determined using previously described methods. […] Upon reaching 80-90% confluence, cells were harvested using pre-mixed Earle's Balanced Salt Solution (EBSS) with […] EDTA (Life Technologies) and centrifuged at 3000 rpm for 10 min at 21° C. The supernatant was removed and the pellet was resuspended in 10 mL hypotonic lysis buffer (5 mM MgCl2.6H2O, 5 mM Tris, pH 7.4 at 4° C.) and centrifuged at 20,000 rpm for 30 min at 4° C. The pellet was then resuspended in fresh EBSS buffer made from 8.7 g/L Earle's Balanced Salts without phenol red (US Biological, Salem, Mass.), 2.2 g/L sodium bicarbonate, pH to 7.4. A Bradford protein assay (Bio-Rad, Hercules, Calif.) was used to determine the protein concentration and membranes were diluted to 500 μg/mL and stored in a −80° C. freezer for later use.
(§2) Radioligand competition binding experiments were conducted using thawed membranes. Test compounds were freshly dissolved in 30% DMSO and 70% H2O to a stock concentration of 100 μM. To assist the solubilization of free-base compounds, 10 μl of glacial acetic acid was added along with the DMSO. Each test compound was then diluted into 13 half-log serial dilutions using 30% DMSO vehicle; final test concentrations ranged from 10 μM to 10 pM. Previously frozen membranes were diluted in fresh EBSS to a 100 μg/mL (for hD2R or hD3R) or 200 μg/mL (hD4R) stock for binding. […] buffer with 0.2 mM sodium metabisulfite, 50 μl of diluted test compound, 100 μl of membranes (10 μg total protein for hD2R or hD3R, 20 μg total protein for hD4R), and 50 μl of [^3H]N-methylspiperone (0.4 nM final concentration; Perkin Elmer). Nonspecific binding was determined using 10 μM butaclamol (Sigma-Aldrich, St. Louis, Mo.) and total binding was determined with 30% DMSO vehicle. All compound dilutions were tested in triplicate and the reaction incubated for one hour at room temperature. The reaction was terminated by filtration through Whatman GF/B filters, presoaked for one hour in 0.5% polyethylenimine, using a Brandel R48 filtering manifold (Brandel Instruments, Gaithersburg, Md.). The filters were washed 3 times with 3 mL of ice cold EBSS buffer and transferred to scintillation vials. […] IC50 values for each compound were determined from dose-response curves and Ki values were calculated using the Cheng-Prusoff equation; these analyses were performed using GraphPad Prism version 5.00 for Windows (GraphPad Software, San Diego, Calif.). Reported Ki values were determined from least three independent experiments.
(§3) The binding affinities of the compounds were evaluated by performing competition binding studies with [^3H]N-methylspiperone using membranes prepared from HEK293 cells expressing either the human D2R or D3R.
(In general: Displacement assays read how much labelled ligand stays bound in the presence of the test substance.)

In a further series the target is human D4R (Homo sapiens (Human), UniProt P21917). As to the kind of experiment: Radioligand competition binding, [3H]N-methylspiperone, HEK293 membranes expressing human D4R. The following applies: Table 1A; for Ki: [3H]N-methylspiperone, read-out: D4R Ki ± SEM; for D4/D2 / D4/D3: ratio of Ki values. The method, then:
Binding at dopamine D2-like receptors was determined using previously described methods. (Chen et al. “Tranylcypromine substituted cis-hydroxycyclobutylnaphthamides as potent and selective dopamine D(3) receptor antagonists.” J. Med. Chem. 2014, 57, 4962-4968) Membranes were prepared from HEK293 cells expressing human D2R, D3R or D4R, grown in a 50:50 mix of DMEM and Ham's F12 culture media, supplemented with 20 mM HEPES, 2 mM L-glutamine, 0.1 mM non-essential amino acids, 1× antibiotic/antimycotic, 10% heat-inactivated fetal bovine serum, and 200 μg/mL hygromycin (Life Technologies, Grand Island, N.Y.) and kept in an incubator at 37° C. and 5% CO2. Upon reaching 80-90% confluence, cells were harvested using pre-mixed Earle's Balanced Salt Solution (EBSS) with […] EDTA (Life Technologies) and centrifuged at 3000 rpm for 10 min at 21° C. The supernatant was removed and the pellet was resuspended in 10 mL hypotonic lysis buffer (5 mM MgCl2.6H2O, 5 mM Tris, pH 7.4 at 4° C.) and centrifuged at 20,000 rpm for 30 min at 4° C. The pellet was then resuspended in fresh EBSS buffer made from 8.7 g/L Earle's Balanced Salts without phenol red (US Biological, Salem, Mass.), 2.2 g/L sodium bicarbonate, pH to 7.4. A Bradford protein assay (Bio-Rad, Hercules, Calif.) was used to determine the protein concentration and membranes were diluted to 500 μg/mL and stored in a −80° C. freezer for later use.
Radioligand competition binding experiments were conducted using thawed membranes. Test compounds were freshly dissolved in 30% DMSO and 70% H2O to a stock concentration of 100 μM. To assist the solubilization of free-base compounds, 10 μl of glacial acetic acid was added along with the DMSO. Each test compound was then diluted into 13 half-log serial dilutions using 30% DMSO vehicle; final test concentrations ranged from 10 μM to 10 pM. Previously frozen membranes were diluted in fresh EBSS to a 100 μg/mL (for hD2R or hD3R) or 200 μg/mL (hD4R) stock for binding. Radioligand competition experiments were conducted in glass tubes containing 300 μl fresh EBSS buffer with 0.2 mM sodium metabisulfite, 50 μl of diluted test compound, 100 μl of membranes (10 μg total protein for hD2R or hD3R, 20 μg total protein for hD4R), and 50 μl of [^3H]N-methylspiperone (0.4 nM final concentration; Perkin Elmer). Nonspecific binding was determined using 10 μM butaclamol (Sigma-Aldrich, St. Louis, Mo.) and total binding was determined with 30% DMSO vehicle. All compound dilutions were tested in triplicate and the reaction incubated for one hour at room temperature. The reaction was terminated by filtration through Whatman GF/B filters, presoaked for one hour in 0.5% polyethylenimine, using a Brandel R48 filtering manifold (Brandel Instruments, Gaithersburg, Md.). The filters were washed 3 times with 3 mL of ice cold EBSS buffer and transferred to scintillation vials. 3 mL CytoScint liquid scintillation cocktail (MP Biomedicals, Solon, Ohio) was added and vials were counted using a Perkin Elmer Tri-Carb 2910 TR liquid scintillation counter (Waltham, Mass.). IC50 values for each compound were determined from dose-response curves and Ki values were calculated using the Cheng-Prusoff equation; these analyses were performed using GraphPad Prism version 5.00 for Windows (GraphPad Software, San Diego, Calif.). Reported Ki values were determined from least three independent experiments.

The target of the next series is 5-HT1A (Homo sapiens (Human), UniProt P08908). As to the kind of experiment: 5-HT1A [3H]-8-OH-DPAT binding. The following applies: read-out: 5-HT1A [3H]-8-OH-DPAT Ki ± SEM.
Chain of 5-HT1A (P08908 whole entry, species assumed): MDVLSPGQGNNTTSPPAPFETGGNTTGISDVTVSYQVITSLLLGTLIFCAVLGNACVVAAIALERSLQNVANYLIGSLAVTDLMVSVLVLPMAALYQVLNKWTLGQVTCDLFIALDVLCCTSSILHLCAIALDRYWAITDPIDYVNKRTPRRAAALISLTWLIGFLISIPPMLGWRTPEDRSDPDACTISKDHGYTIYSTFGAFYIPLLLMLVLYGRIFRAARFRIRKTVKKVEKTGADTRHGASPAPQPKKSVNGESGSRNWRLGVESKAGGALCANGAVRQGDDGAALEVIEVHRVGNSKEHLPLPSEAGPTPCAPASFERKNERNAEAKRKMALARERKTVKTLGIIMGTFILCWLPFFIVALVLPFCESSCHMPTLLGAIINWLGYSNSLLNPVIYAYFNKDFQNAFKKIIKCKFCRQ
The target of a further series is 5-HT2A (Homo sapiens (Human), UniProt P28223). Nature of the series: 5-HT2A [125I]DOI binding. The following applies: read-out: 5-HT2A [125I]DOI Ki ± SEM.
Chain of 5-HT2A (P28223 whole entry, species assumed): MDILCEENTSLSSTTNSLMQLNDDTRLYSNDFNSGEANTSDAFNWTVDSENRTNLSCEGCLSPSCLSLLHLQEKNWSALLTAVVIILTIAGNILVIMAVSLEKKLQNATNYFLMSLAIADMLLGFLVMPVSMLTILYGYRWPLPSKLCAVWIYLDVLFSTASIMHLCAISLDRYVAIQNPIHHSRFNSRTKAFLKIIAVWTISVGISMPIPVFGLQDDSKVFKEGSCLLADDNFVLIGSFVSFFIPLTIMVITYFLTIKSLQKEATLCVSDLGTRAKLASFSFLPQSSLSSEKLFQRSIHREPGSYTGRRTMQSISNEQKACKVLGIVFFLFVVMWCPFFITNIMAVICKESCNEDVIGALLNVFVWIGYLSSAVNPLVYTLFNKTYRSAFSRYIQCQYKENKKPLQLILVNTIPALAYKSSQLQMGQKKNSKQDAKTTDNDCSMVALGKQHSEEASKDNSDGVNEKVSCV
The target in another series is human D3R (Homo sapiens (Human), UniProt P35462). Nature of the series: Radioligand competition binding, [3H]N-methylspiperone, HEK293 membranes expressing human D3R. Particulars: for Ki: read-out: D3R Ki ± SEM; for D2/D3: ratio of Ki values. The method, then: as §1, §2, §3
Chain of human D3R (P35462 whole entry): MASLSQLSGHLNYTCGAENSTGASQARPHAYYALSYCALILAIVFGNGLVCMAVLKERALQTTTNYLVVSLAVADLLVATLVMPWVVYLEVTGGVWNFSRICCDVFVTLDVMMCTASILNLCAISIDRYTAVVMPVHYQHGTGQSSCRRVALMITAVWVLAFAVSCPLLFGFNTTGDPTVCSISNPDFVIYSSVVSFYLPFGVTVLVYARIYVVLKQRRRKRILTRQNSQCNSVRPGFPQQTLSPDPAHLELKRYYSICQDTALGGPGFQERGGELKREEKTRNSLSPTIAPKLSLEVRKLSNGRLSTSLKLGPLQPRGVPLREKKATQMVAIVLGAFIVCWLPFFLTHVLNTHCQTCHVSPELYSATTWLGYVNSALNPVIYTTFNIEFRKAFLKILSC
The target of another series is human dopamine D3R (Homo sapiens (Human), UniProt P35462). As to the kind of experiment: D3R mitogenesis assay: stimulation or inhibition of quinpirole-stimulated mitogenesis in CHO cells. The series is classed as cell-based. The following applies: inhibition of quinpirole-stimulated mitogenesis.
Chain of human dopamine D3R (P35462 whole entry): as above
The nature of series [1]: Phase I metabolic stability in rat liver microsomes. In kind it is in vitro ADME. The following applies: phase I metabolic stability in rat liver microsomes. The source says: Rat Liver Microsome Metabolic Stability: Test compounds including 3-F analogues (C4a, C4b, C5a, C5b) and 29, 19 as well as the R-, S-enantiomers of C4a, C5a, 29 and 19 were screened for phase I metabolic stability in rat liver microsomes.
(In general: Liver microsomes are a subcellular fraction often used to study metabolism.)

[2] abbreviates: Table 1A, HEK 293 cells transfected with hD2LR, [3H]N-methylspiperone.
Setting [3] is: Table 1B, [3H]-N-methylspiperone competition, D2LR, 96-well plates.
Setting [4] is: Table 1A, HEK 293 cells transfected with hD3R, [3H]N-methylspiperone.
The mark [5] stands for this setting: Table 2a, read-out: Antagonist IC50 ± SEM.

Chain of human D2R (P14416 whole entry): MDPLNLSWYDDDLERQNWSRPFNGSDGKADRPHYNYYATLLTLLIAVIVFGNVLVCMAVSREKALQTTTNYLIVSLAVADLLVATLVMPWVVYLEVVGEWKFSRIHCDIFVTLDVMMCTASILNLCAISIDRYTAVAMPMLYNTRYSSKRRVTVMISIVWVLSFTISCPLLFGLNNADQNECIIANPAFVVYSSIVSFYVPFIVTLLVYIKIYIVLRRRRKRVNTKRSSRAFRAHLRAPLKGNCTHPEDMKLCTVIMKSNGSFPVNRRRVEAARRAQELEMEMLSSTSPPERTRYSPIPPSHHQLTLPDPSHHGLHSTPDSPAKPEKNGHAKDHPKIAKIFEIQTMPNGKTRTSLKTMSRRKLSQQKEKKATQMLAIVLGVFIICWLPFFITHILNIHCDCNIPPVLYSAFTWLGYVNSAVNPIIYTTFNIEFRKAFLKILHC
Chain of 5-HT2C (P28335 33-458, species assumed): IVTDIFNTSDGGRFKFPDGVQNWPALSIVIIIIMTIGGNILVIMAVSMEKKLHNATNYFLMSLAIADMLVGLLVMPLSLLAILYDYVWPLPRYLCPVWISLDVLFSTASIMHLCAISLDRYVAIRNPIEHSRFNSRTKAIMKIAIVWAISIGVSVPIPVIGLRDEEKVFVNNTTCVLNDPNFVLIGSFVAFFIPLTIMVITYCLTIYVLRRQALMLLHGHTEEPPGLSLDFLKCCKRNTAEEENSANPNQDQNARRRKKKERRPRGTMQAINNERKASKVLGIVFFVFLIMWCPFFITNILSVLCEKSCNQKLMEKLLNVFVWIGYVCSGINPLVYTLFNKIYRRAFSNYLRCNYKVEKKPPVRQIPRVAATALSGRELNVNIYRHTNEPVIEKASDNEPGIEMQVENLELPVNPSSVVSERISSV
Chain of human D4R (P21917 whole entry): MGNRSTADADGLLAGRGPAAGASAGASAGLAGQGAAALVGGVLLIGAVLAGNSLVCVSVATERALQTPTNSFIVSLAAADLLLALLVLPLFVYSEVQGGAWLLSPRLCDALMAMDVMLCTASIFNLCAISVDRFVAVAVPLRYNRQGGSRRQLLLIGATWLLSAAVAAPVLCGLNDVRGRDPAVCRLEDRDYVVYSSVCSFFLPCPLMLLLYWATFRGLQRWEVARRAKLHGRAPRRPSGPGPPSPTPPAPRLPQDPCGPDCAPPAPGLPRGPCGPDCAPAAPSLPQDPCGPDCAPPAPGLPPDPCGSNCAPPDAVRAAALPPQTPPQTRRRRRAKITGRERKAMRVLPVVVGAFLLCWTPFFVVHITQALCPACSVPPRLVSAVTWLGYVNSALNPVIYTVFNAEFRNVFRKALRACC

As to `CCc1cccc(N2CCN(CC(O)CCNC(=O)c3cc4ccccc4[nH]3)CC2)c1Cl` (racemic) [Compound 19, N-(4-(4-(2-chloro-3-ethylphenyl)piperazin-1-yl)-3-hydroxybutyl)-1H-indole-2-carboxamide], the inhibition constant (Ki) at 5-HT2C stood at 113 ± 33 nM; at human D2R (setting [2]) it was 151 ± 25.4 nM; at human D2R (setting [3]) it was 119 ± 11.1 nM; on human D2R (Table 1C), 132 ± 12.7 nM; on human D4R, 5520 ± 1660 nM; on 5-HT1A (Table 3a) it was 880 ± 160 nM. In addition, the inhibition constant (Ki) at 5-HT2A (Table 3a) was determined as 28.1 ± 9.7 nM.
`CCc1cc(Cl)c(OC)c(N2CCN(CC(F)CCNC(=O)c3cc4ccccc4[nH]3)CC2)c1` (racemic) [Compound C4a, N-(4-(4-(3-chloro-5-ethyl-2-methoxyphenyl)piperazin-1-yl)-3-fluorobutyl)-1H-indole-2-carboxamide]: the Ki was 28 ± 5.53 nM at human D3R (Table 1B, [3H]-N-methylspiperone competition, 96-well plates); 27.9 ± 5.64 nM at human D3R (Table 1C); 27100 ± 11600 nM on human D2R (setting [3]); 20800 ± 7060 nM on human D2R (Table 1C); 9500 ± 3000 nM at 5-HT1A (Table 3b); 6600 ± 1400 nM at 5-HT2A (Table 3b). Besides, the D2/D3 is 968 on human D3R (Table 1B) and 746 on human D3R (Table 1C). Also, the IC50 on human dopamine D3R (Table 2b, read-out: Antagonist IC50 ± S.E.M.) worked out at 510 ± 130 nM. Further, the “% intact/parent remaining” value in series [1] is recorded as ~75%.
Take `CCc1cc(Cl)c(OC)c(N2CCN(CCCCNC(=O)c3cc4ccccc4[nH]3)CC2)c1` [Compound 28, N-(4-(4-(3-Chloro-5-ethyl-2-methoxyphenyl)piperazin-1-yl)butyl)-1H-indole-2-carboxamide]: the Ki at 5-HT2C was determined as 144 ± 37 nM; at human D3R (setting [4]), 0.341 ± 0.0312 nM; at human D2R (setting [2]) it was 27.8 ± 6.71 nM; on human D4R, 1040 ± 279 nM; at 5-HT1A (Table 3a) it was 2330 ± 700 nM; at 5-HT2A (Table 3a), 60.1 ± 9.5 nM. Also, the D2/D3 at human D3R (Table 1A) was 82. Besides, on human D4R, the D4/D2 is 38. At human D4R, the D4/D3 amounted to 3065. In addition, the IC50 at human dopamine D3R (setting [5]) was 330 ± 100 nM.
As to `CCc1cc(Cl)c(OC)c(N2CCN(CCCCNC(=O)c3cc4ccccc4o3)CC2)c1` [Compound 30, N-(4-(4-(3-Chloro-5-ethyl-2-methoxyphenyl)piperazin-1-yl)butyl)benzofuran-2-carboxamide], the Ki turned out to be 55 ± 17 nM at 5-HT2C; 3.19 ± 0.268 nM at human D3R (setting [4]); 137 ± 9 nM on human D2R (setting [2]); 714 ± 293 nM at human D4R; 560 ± 170 nM at 5-HT1A (Table 3a); 25 ± 6.6 nM on 5-HT2A (Table 3a). In addition, at human D3R (Table 1A), the D2/D3 came to 43. Moreover, the D4/D2 at human D4R came to 5.2. Also, the D4/D3 at human D4R is 224. Moreover, on human dopamine D3R (setting [5]), the IC50 worked out at 420 ± 130 nM.
In the case of `CCc1cc(Cl)c(OC)c(N2CCN(CC(O)CCNC(=O)c3cc4ccccc4o3)CC2)c1` (centres unmarked) [Compound 31, N-(4-(4-(3-Chloro-5-ethyl-2-methoxyphenyl)piperazin-1-yl)-3-hydroxybutyl)benzofuran-2-carboxamide], the Ki on 5-HT2C came out at 268 ± 34 nM; on human D3R (setting [4]), 36.1 ± 5 nM; at human D2R (setting [2]), 1620 ± 339 nM; at human D4R, 5280 ± 319 nM; at 5-HT1A (Table 3a), 2410 ± 830 nM; at 5-HT2A (Table 3a) it was 42.9 ± 6.8 nM. At human D3R (Table 1A), the D2/D3 was found to be 45. The D4/D2 at human D4R was 3.3. Further, the D4/D3 on human D4R worked out at 146. Moreover, the half-maximal inhibitory concentration (IC50) at human dopamine D3R (setting [5]) amounted to 950 ± 350 nM.
As for `CCc1cccc(N2CCN(C/C=C/CNC(=O)c3nc(C)c[nH]3)CC2)c1Cl` [Compound 35, (E)-N-(4-(4-(2-Chloro-3-ethylphenyl)piperazin-1-yl)but-2-en-1-yl)-4-methyl-1H-imidazole-2-carboxamide], the inhibition constant (Ki) on human D3R (setting [4]) is 1.28 ± 0.22 nM. Also, on human D3R (Table 1A), the D2/D3 was 12.6. Moreover, on human D2R (setting [2]), the Ki came to 16.1 ± 1.2 nM. Moreover, at human D4R, the inhibition constant (Ki) worked out at 503 ± 157 nM, the D4/D2 turned out to be 31.2 and the D4/D3 is 393.
Take `CCc1cccc(N2CCN(CCC(O)CNC(=O)c3cc4ccccc4[nH]3)CC2)c1Cl` (centres unmarked) [Compound 40, N-(4-(4-(2-Chloro-3-ethylphenyl)piperazin-1-yl)-2-hydroxybutyl)-1H-indole-2-carboxamide]: the Ki at human D3R (setting [4]) is 0.2 ± 0.018 nM; at human D2R (setting [2]), 6.83 ± 0.53 nM; at human D4R, 305 ± 70.5 nM. Besides, the D2/D3 on human D3R (Table 1A) is reported as 34.2. Further, at human D4R, the D4/D2 is given as 44.7. Besides, the D4/D3 on human D4R came to 1525.

(Values after patent US11337971B2, “Dopamine D3 receptor selective antagonists/partial agonists and uses thereof” (THE UNITED STATES OF AMERICA, AS REPRESENTED BY THE …, priority 2018, dated 2022).)
